The experiment concerns C57BL/6 mice. The experiment in a line: Induction of WT1-specific immunity in mice (ELISpot of splenocytes). In kind it is in vivo. The conditions noted are these: group (3): WT1 peptide 15 μg/mouse + OSK-1 100 μg/mouse, once a week for 4 weeks. Here is the method: The OSK-1 peptide and a WT1 peptide were conjugated via ε-Acp as a spacer to form an “OSK-1-WT1 conjugate vaccine”. The OSK-1-WT1 conjugate vaccine was evaluated for the ability to induce WT1-specific immunity in mice. Mice were divided into the following 5 groups (3 animals per group): (1) physiological saline, (2) WT1 peptide (15 μg/mouse)+Incomplete Freund's Adjuvant (IFA, SIGMA; Cat#F5506, 50 μL/mouse), (3) WT1 peptide (15 μg/mouse)+OSK-1 (100 μg/mouse), (4) OSK-1-WT1 conjugate vaccine (50 μg/mouse), and (5) OSK-1-WT1 conjugate vaccine (300 μg/mouse). In each group, the test substance was administered to C57BL/6 mice once a week for 4 weeks. At 2 weeks after the 4th administration, the spleen was excised from each immunized mouse, and the ELISpot assay was performed. The specific procedure is as follows. Splenocytes were prepared from the excised spleen and seeded on a filter plate coated with an anti-IL-4 antibody or an anti-IFNγ antibody. The WT1 peptide or the OSK-1-WT1 peptide was added to the wells, and the splenocytes were cultured for 3 days. After that, each well of the filter plate was stained and the spots of IL-4- or IFNγ-producing cells was counted.

Turning to “ELKLIFLHRLKRLRKRLKRK (Ac-ELKLIFLHRLKRLRKRLKRK-NH2) [OSK-1]”, the “IFNγ-producing cells in response to stimulation with the WT1 peptide (ELISpot)” value is on record as “more cells produced IFNγ in response to the stimulation with the WT1 peptide”.

The values above are taken from patent US10112978B2, “Peptide and use thereof” (OSAKA UNIVERSITY, priority 2014, dated 2018).
